Values of other authors as cited in patent US7488493B2, “Performance aid for pesticide or repellent compositions” (Arkion Life Sciences, LLC, priority 2003, dated 2009).

Tested on: birds

## O=C1c2ccccc2C(=O)c2ccccc21 [9,10-anthraquinone]
In vivo
  Lower limit of detection in birds (threshold where birds begin to sense the repellency): 125 ppm
Treated seed
  Content in seed at which birds will not feed: 0.1 % by weight
